Laboratory results from patent US9393329B2, “N-alkoxyamide conjugates as imaging agents” (Lantheus Medical Imaging, Inc., priority 2009, dated 2016).

Legend:
[1] = tested on: aorta of apolipoprotein E (ApoE) knockout mouse; experiment: In-vivo ApoE mouse aorta uptake studies; details: ApoE knockout mice on high-fat diet, 0.3-0.4 mCi/kg bolus via tail vein; for aorta:blood / aorta:heart: 60 min, ratio; for aorta uptake (% ID/g): tissue harvested at 60 min
Protocol: Mice were fed a high-fat diet to accelerate plaque formation and compounds were tested in the mice between 35-42 weeks on diet. Test compounds were administered at 0.3-0.4 mCi/kg to anesthetized mice in a single, bolus injection via the tail vein. Blood samples were collected via the tail between 0-30 min post injection for pharmacokinetic analysis and mice were euthanized by CO2 at 60 min for tissue harvesting. The aorta was first flushed with saline through the left ventricle exiting via the femoral vein then removed from the heart to the renal bifurcation; additional biological samples were also collected (blood, muscle, liver, kidney, bile, urine, heart, femur, reproductive organ, lung, spleen and innominate artery). All samples were weighed and assayed for radioactivity; uptake is expressed as a percentage of injected dose per gram of tissue (% ID/g).

[2] = tested on: aorta bearing atherosclerotic plaque; experiment: Ex-vivo blood vessel binding assay; design: species or system New Zealand white rabbits; details: 153Gd-labeled compound 0.135 μCi in phosphate buffered saline, plaque-bearing rabbit aorta sections, 2 h at 37° C., washed; percentage of initial activity
Protocol: Aorta bearing atherosclerotic plaque was obtained from New Zealand white rabbits that were balloon stripped along the abdominal aorta and placed on a high fat diet (0.5% cholesterol) for 16-22 weeks. Vascular injury was produced with a 4-F Fogarty catheter along the abdominal aorta and right iliofemoral artery. This procedure generates an accelerated complex lesion development with a lipid rich core covered by a fibrous cap in rabbits. Harvested aorta sections (0.5 cm) were incubated with 0.135 μCi of ^153Gd-labeled compound diluted in phosphate buffered saline (450 μL) for 2 h at 37° C. The supernatant was removed and analyzed by HPLC to assay compound stability. The tissue section was then washed with phosphate buffered saline (3×10 mL), then resuspended (10 mL) and incubated at 37° C. an additional 1 h. The supernatant was then removed, the washing process repeated and the tissue finally counted on a gamma counter. The amount of compound bound to the tissue was determined as a percentage of the initial activity according to the following formula: […]

aorta:blood [1]	aorta:heart [1]	aorta uptake (% ID/g) [1] [% ID/g]	% bound [2] [%]	SMILES
1.2	5.3	2.5 ± 0.5		CONC(=O)C(N)Cc1ccc(CNC(=O)CN2CCN(CC(=O)[O-])CCN(CC(=O)[O-])CCN(CC(=O)[O-])CC2)cc1.[153Gd+3] (stereo not shown) [Example 54]
1.0	8.8	3.0 ± 2.3		NC(Cc1ccc(CNC(=O)CN2CCN(CC(=O)[O-])CCN(CC(=O)[O-])CCN(CC(=O)[O-])CC2)cc1)C(=O)NOCc1ccccc1.[153Gd+3] (stereo not shown) [Example 55]
0.8	4.2	1.5 ± 0.1		O=C([O-])CN1CCN(CC(=O)[O-])CCN(CC(=O)NCc2ccc(CN[C@H](CCc3ccccc3)C(=O)NOCc3ccccc3)cc2)CCN(CC(=O)[O-])CC1.[153Gd+3] [Example 53]
2.0	9.2	6.1 ± 1.2	6.9	CONC(=O)[C@@H](CCc1ccccc1)NCc1ccc(CNC(=O)CN2CCN(CC(=O)[O-])CCN(CC(=O)[O-])CCN(CC(=O)[O-])CC2)cc1.[153Gd+3] [Example 52]
